# Source: article PMC6792352, “Limited Chemical Structural Diversity Found to Modulate Thyroid Hormone Receptor in the Tox21 Chemical Library” (Environmental Health Perspectives, 2019)
# Structures can show the parent of a compound that is named as a salt. Non-standard residues stand in square brackets, D forms with d. Residues, ends and D or L forms follow the SMILES beside them. *: point of attachment. Sta = CC(C)C[C@H](N)[C@@H](O)CC(=O)O; Isovaleryl = CC(C)CC(=O)*
# Experiment: in vitro
# Conditions: rat, gh3-tre-luc cells, AC50 (uM) modified / 1000
row,Structure (SMILES),CC50 at 24 h [µM]
1,NC(N)=O [Urea],> 100
2,Cc1nc(Nc2ncc(C(=O)Nc3c(C)cccc3Cl)s2)cc(N2CCN(CCO)CC2)n1 [Dasatinib],15.8
3,Cc1cc(O)c2c(c1)O[C@@]1(C)CC[C@H]3C(C)(C)CCC[C@]34CO[C@@H]2[C@H]41 [Siccanin],15.9
4,O=c1[nH]c2ccccc2n1CCCN1CCN(C(c2ccccc2)c2ccccc2)CC1 [Oxatomide],20.3
5,CC(C)[C@H](C(=O)O[C@H](C#N)c1cccc(Oc2ccccc2)c1)c1ccc(Cl)cc1 [Esfenvalerate],> 90
6,CCCCCCOC(=O)c1ccccc1 [Hexyl benzoate],> 90
7,C=C(C)C(=O)OCCCCCC [Hexyl methacrylate],> 90
8,CN(C)CCCN1c2ccccc2C(C)(C)c2ccccc21 [Dimetacrine],14.8
9,CCCCC[Si](OCC)(OCC)OCC [Triethoxypentylsilane],> 90
10,CCCCCCOc1ccc(N)cc1 [4-Hexyloxyaniline],> 90
11,O=c1cc(CO)occ1O [Kojic acid],> 50
12,CC(C)CC(=O)N[C@H](C(=O)N[C@H](C(=O)N[C@@H](CC(C)C)[C@@H](O)CC(=O)N[C@@H](C)C(=O)N[C@@H](CC(C)C)[C@@H](O)CC(=O)O)C(C)C)C(C)C [Pepstatin] (Isovaleryl-VV[Sta]A[Sta]-OH),> 50
13,OC1CCCCCCCCCCC1 [Cyclododecanol],> 90
14,COc1cc(C)ccc1C(C)C [2-Methoxy-4-methyl-1-(propan-2-yl)benzene],> 90
15,CCn1cc(C(=O)O)c(=O)c2cnc(N3CCCC3)nc21 [Piromidic acid],> 20
16,CCc1nn(C2CCCCC2)c2cc(C3(C#N)CCC(C(=O)O)CC3)ccc12 (centres unmarked) [CP-401387],49.9
17,COc1ccc2nc(N)sc2c1 [2-Amino-6-methoxybenzothiazole],> 90
18,CCCCCCCCCCCCCCCC[N+](C)(C)C [Hexadecyl trimethyl ammonium chloride],12.8
19,Clc1ccc([C@@H]2C[C@H]3CC[C@@H]2N3)cn1 [(+)-Epibatidine hydrochloride],> 90
20,C/C=C(\C)C(=O)OC/C=C(\C)CCC=C(C)C [Geranyl tiglate],> 90

row,Structure (SMILES),CC50 at 24 h [µM]
1,CCC(=O)O[C@@H]1CC(=O)O[C@H](C)C/C=C/C=C/[C@H](O)[C@H](C)C[C@H](CC=O)[C@H](O[C@@H]2O[C@H](C)[C@@H](O[C@H]3C[C@@](C)(O)[C@@H](OC(=O)CC)[C@H](C)O3)[C@H](N(C)C)[C@H]2O)[C@H]1OC [Midecamycin],> 20
2,ON=C1CCCCC1 [Cyclohexanone oxime],> 90
3,OCCN1CCNCC1 [1-Piperazineethanol],> 90
4,"C=C(C)C(=O)OC1CC(C)CC(C)(C)C1 (centres unmarked) [3,3,5-Trimethylcyclohexyl 2-methylprop-2-enoate]",> 90
5,CCc1ccccc1N [2-Ethylaniline],> 90
6,C[C@@H](O)[C@H]1C(=O)N2C(C(=O)O)=C(S[C@@H]3CN[C@H](CNS(N)(=O)=O)C3)[C@H](C)[C@H]12 [Doripenem],> 50
7,C=CC1=C(C(=O)O)N2C(=O)[C@@H](NC(=O)/C(=N\O)c3csc(N)n3)[C@H]2SC1 [Cefdinir],> 50
8,Cn1cnc2c1c(=O)[nH]c(=O)n2C [Theobromine],> 40
9,Oc1ccc(Cc2ccccc2)cc1 [4-Benzylphenol],84.1
10,CCNc1cc(O)ccc1C [3-Ethylamino-4-methylphenol],> 90
11,CCCCCNCCCCC [Dipentylamine],> 90
12,CNC(=O)c1ccccc1Sc1ccc2c(/C=C/c3ccccn3)n[nH]c2c1 [Axitinib],> 50
13,CC(C)(CO)C(O)C(=O)NCCCO (centres unmarked) [Panthenol],> 90
14,NNC(N)=S [Thiosemicarbazide],> 100
15,O=C1c2c(O)cccc2C([C@@H]2O[C@H](CO)[C@@H](O)[C@H](O)[C@H]2O)c2cc(CO)cc(O)c21 (some centres unmarked) [Aloin],> 50
16,CN1CCN(c2c(F)cc3c(=O)c(C(=O)O)cn4c3c2SCC4)CC1 [Rufloxacin hydrochloride],> 50
17,CNC(=O)Oc1cccc(C(C)C)c1 [m-Cumenyl methylcarbamate],> 90
18,O=c1c(-c2ccccc2)c1-c1ccccc1 [Diphenylcyclopropenone],5.54
19,Clc1ccc(Sc2cc(Cl)c(Cl)cc2Cl)cc1 [Tetrasul],> 90
20,FC(F)OC(Cl)C(F)(F)F (centres unmarked) [Isoflurane],> 90

row,Structure (SMILES),CC50 at 24 h [µM]
1,CSc1ccc(Oc2ccc(S(N)(=O)=O)cc2CN(C)C)cc1C [UK-416244],36.3
2,O=C(O)C(F)(F)C(F)(F)C(F)(F)C(F)(F)C(F)(F)C(F)(F)C(F)(F)C(F)(F)F [Perfluorononanoic acid],> 90
3,CCCC(=O)O[C@]1(C(=O)COC(=O)CC)CC[C@H]2[C@@H]3CCC4=CC(=O)CC[C@]4(C)[C@H]3[C@@H](O)C[C@@]21C [Hydrocortisone buteprate],> 50
4,CCOc1ccc(O)cc1 [4-Ethoxyphenol],> 90
5,CCCC(=O)Nc1ncnc2c1ncn2[C@@H]1O[C@@H]2COP(=O)(O)O[C@H]2[C@H]1OC(=O)CCC [Bucladesine],> 50
6,Cn1c(=O)c2[nH]c(Br)nc2n(C)c1=O [8-Bromotheophylline],> 50
7,CC(C)(CCl)c1ccccc1 [Neophyl chloride],> 90
8,CC(C)OC(=O)C(C)(C)Oc1ccc(C(=O)c2ccc(Cl)cc2)cc1 [Fenofibrate],78.6
9,NC(Cc1ccc(F)cc1)C(=O)O (racemic) [4-Fluoro-dl-phenylalanine],2.98
10,C1CCN(CN2CCCCC2)CC1 [Dipiperidinomethane],> 90
11,N=C(N)n1cccn1 [Praxadine hydrochloride],> 50
12,O=C1c2ccccc2-c2ccccc21 [9-Fluorenone],> 90
13,CN/C(=N/CC1CCOC1)N[N+](=O)[O-] (centres unmarked) [Dinotefuran],> 90
14,CC(C)CCC[C@@H](C)[C@H]1CC[C@H]2[C@@H]3CC=C4C[C@@H](O)CC[C@]4(C)[C@H]3CC[C@]12C [Cholesterol],> 50
15,COc1cc2[nH]c(C)c(CCN3CCN(c4ccccc4)CC3)c2cc1OC [Oxypertine hydrochloride],23.2
16,"NCCCN1CCN(CCCN)CC1 [1,4-bis(3-Aminopropyl)piperazine]",> 90
17,CC(=O)OCC(=O)[C@@]1(O)CC[C@H]2[C@@H]3CCC4=CC(=O)CC[C@]4(C)[C@H]3C(=O)C[C@@]21C [Cortisone acetate],> 50
18,"Cc1ccc(C(C)c2ccc(C)c(C)c2)cc1C [1,1-Bis(3,4-dimethylphenyl)ethane]",> 90

# Same assay, conditions: rat, gh3-tre-luc cells, AC50 (uM) modified / 1000, Tox21_110001=Tox21_112834; viability, 1 nM T3 present, 24 h
row,Structure (SMILES),CC50 at 24 h [µM]
1,C[C@@H]1[C@@H]2Cc3ccc(O)cc3[C@@]1(C)CCN2CCc1ccccc1 [(+)-Phenazocine hydrobromide],67.4

# Same assay, conditions: rat, gh3-tre-luc cells, AC50 (uM) modified / 1000, Tox21_110001=Tox21_200200; viability, 1 nM T3 present, 24 h
row,Structure (SMILES),CC50 at 24 h [µM]
1,C=CCO [Allyl alcohol],> 100

# Same assay, conditions: rat, gh3-tre-luc cells, AC50 (uM) modified / 1000, Tox21_110001=Tox21_200802; viability, 1 nM T3 present, 24 h
row,Structure (SMILES),CC50 at 24 h [µM]
1,Nc1ccccc1Cl [2-Chloroaniline],> 90

# Same assay, conditions: rat, gh3-tre-luc cells, AC50 (uM) modified / 1000, Tox21_110001=Tox21_200953; viability, 1 nM T3 present, 24 h
row,Structure (SMILES),CC50 at 24 h [µM]
1,"O=[N+]([O-])c1cccc2c([N+](=O)[O-])cccc12 [1,5-Dinitronaphthalene]",> 90

# Same assay, conditions: rat, gh3-tre-luc cells, AC50 (uM) modified / 1000, Tox21_110001=Tox21_201786; viability, 1 nM T3 present, 24 h
row,Structure (SMILES),CC50 at 24 h [µM]
1,CCCC=NO [Butanal oxime],> 90

# Same assay, conditions: rat, gh3-tre-luc cells, AC50 (uM) modified / 1000, Tox21_110001=Tox21_202019; viability, 1 nM T3 present, 24 h
row,Structure (SMILES),CC50 at 24 h [µM]
1,CCOC(=O)c1ccccc1N [Ethyl anthranilate],> 90

# Same assay, conditions: rat, gh3-tre-luc cells, AC50 (uM) modified / 1000, Tox21_110001=Tox21_303507; viability, 1 nM T3 present, 24 h
row,Structure (SMILES),CC50 at 24 h [µM]
1,C=CCO [Allyl alcohol],> 90
